Here are results for five molecules from patent US20250207091A1, “METHODS AND COMPOSITIONS FOR PRODUCING PRIMORDIAL GERM CELL-LIKE CELLS” (President and Fellows of Harvard College, priority 2022, published 2025).

One experiment has as its system SW480 cells. As to conditions: Huang et al.; cited from earlier work.
Experiment [1] concerns NANOS3-mVenus PSCs (hiPSCs). The experiment can be described thus: Primordial germ cell (hPGCLC) induction via TF overexpression in hiPSCs. The format is cell-based, human. As to conditions: for effect on NANOS3+ hPGCLC yield: doxycycline induction, monolayer, FIG. 1B. The source says: FIGS. 1A-1B show identification of overexpressed transcription factors (TFs) that drive enhancement of NANOS3+ primordial germ cell yield.
A method was designed for high yield germ cell formation from stem cells in monolayer culture conditions, which is described in more detail below and in FIG. 4 with a culture media composition described in Table 1. The TFs DLX5, HHEX, or FIGLA or all three together, were integrated to iPSCs via piggyBac or lentivirus and a purified pool was selected through antibiotic addition. For germ cell induction, 2,500 TF-containing iPSCs per cm^2 were seeded in mTeSR™ medium on Corning® Matrigel® Matrix for six hours. After about 12-18 hours, Media #1 was removed and the cells were again washed, and Media #2 was added. The cells were then grown for about 24 hours, after which Media #2 was replaced by Media #3. The cells were again grown for about 24 hours, after which Media #3 was replaced by Media #4. Finally, the cells were again grown for about 24 hours, at which point primordial germ cells was harvested and isolated via FACS.
Expression plasmids containing TF cDNAs under the control of a doxycycline-inducible promoter were integrated into iPSCs using PiggyBac transposase. To perform the integration, ˜50-100 fmol of TF cDNA plasmid, ˜150-250 ng PiggyBac transposase expression plasmid, and ˜100,000-200,000 iPSCs were combined in Lonza P3 buffer and electroporated using a Lonza Nucleofector 4D. After electroporation, cells were seeded in 24-well plates in mTeSR™ Plus Medium+˜8-12 μM Y-27632. Selection with the appropriate agent (typically puromycin) commenced 48 hours after electroporation and continued for ˜3-5 days. Cells were then passaged without drug selectin for ˜3 days to allow for non-integrated plasmid loss. Finally, cells were again passaged under drug selection to generate a pure, selected integrant pool. Presence and approximate copy number of integrated TF plasmids was confirmed by qPCR on genomic DNA. For oogonia, pools of hiPSCs were utilized, not single cell selected clones. Average copy number was 8-10.
hiPSCs containing integrated TF expression plasmids were cultured in mTeSR 1 medium on Matrigel. For induction in monolayer, hiPSCs are disassociated to single cells using Accutase and seeded on Matrigel or vitronectin XF coated plates at a density of 2,500-3,000 cells per cm^2 in mTeSR™ media+˜8-10 μM Y-27632 and ˜0.5-3 μg/ml doxycycline for about 6 hours. Media was then removed and washed with dPBS and replaced with aRB27 media #1 (see components list in detailed protocol). After about 12-18 hours of induction, media #1 is removed and washed with dPBS and replaced by media #2. After about 24 hours, media #2 is removed and replaced by media #3. […]

The next experiment concerns the target c-Src (Homo sapiens, UniProt P12931). As to conditions: cited from earlier work.
The next experiment concerns PDGFR. Conditions: cited from earlier work.
The test system of the next experiment is PKC. Conditions: cited from earlier work.
The target of a further experiment is VEGFR2 (Homo sapiens, UniProt P35968). Conditions: cited from earlier work.
A further experiment deals with MEK. As to conditions: cited from earlier work.

Sequence of c-Src (P12931 whole entry, species assumed): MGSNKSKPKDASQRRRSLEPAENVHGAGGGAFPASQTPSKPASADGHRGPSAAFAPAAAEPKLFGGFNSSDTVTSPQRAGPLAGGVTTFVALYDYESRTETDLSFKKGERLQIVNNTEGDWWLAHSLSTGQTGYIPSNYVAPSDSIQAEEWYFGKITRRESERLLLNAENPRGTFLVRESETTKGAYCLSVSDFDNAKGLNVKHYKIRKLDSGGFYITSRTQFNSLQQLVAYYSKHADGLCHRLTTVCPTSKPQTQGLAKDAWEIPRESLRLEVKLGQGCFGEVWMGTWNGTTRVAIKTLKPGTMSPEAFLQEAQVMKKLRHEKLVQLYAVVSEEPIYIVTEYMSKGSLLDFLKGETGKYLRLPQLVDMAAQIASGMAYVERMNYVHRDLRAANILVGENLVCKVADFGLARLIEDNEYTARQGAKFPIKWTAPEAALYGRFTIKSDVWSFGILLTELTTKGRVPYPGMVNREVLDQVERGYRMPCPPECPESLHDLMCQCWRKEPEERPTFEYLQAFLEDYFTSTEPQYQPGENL
Sequence of VEGFR2 (P35968 20-1356, species assumed): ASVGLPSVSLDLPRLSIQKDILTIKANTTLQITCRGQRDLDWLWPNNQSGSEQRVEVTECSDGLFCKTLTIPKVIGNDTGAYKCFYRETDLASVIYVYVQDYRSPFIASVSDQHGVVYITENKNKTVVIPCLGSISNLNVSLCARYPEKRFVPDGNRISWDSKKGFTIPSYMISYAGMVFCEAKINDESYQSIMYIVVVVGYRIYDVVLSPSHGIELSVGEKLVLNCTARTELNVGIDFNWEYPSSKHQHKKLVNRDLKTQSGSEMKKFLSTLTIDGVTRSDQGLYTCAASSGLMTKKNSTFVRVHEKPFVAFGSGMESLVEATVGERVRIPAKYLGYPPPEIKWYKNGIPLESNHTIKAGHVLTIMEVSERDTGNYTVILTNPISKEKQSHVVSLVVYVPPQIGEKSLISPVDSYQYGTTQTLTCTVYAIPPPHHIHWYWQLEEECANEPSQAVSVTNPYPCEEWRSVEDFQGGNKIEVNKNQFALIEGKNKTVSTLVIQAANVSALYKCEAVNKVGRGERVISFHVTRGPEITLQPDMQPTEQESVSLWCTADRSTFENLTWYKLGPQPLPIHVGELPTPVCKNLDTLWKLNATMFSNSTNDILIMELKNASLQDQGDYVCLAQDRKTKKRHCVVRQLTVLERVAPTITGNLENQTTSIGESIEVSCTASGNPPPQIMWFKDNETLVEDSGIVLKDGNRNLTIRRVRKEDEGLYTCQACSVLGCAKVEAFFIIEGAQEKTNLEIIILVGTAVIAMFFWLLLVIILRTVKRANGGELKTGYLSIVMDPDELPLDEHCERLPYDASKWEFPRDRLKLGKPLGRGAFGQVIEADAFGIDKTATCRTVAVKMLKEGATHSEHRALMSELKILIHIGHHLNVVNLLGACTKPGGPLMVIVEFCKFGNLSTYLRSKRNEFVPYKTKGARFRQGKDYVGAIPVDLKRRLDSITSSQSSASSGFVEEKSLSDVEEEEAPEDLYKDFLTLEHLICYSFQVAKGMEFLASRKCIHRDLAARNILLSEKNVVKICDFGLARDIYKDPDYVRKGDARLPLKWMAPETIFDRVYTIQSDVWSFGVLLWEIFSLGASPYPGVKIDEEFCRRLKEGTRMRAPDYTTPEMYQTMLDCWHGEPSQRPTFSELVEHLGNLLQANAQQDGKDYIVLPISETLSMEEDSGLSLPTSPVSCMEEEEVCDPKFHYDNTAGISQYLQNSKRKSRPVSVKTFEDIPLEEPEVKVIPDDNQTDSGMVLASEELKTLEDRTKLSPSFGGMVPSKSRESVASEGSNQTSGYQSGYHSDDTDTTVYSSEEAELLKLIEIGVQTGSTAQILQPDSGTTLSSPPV

Consider `Oc1nc(-c2ccc(C(F)(F)F)cc2)nc2c1CSCC2` [XAV939], for which, in the experiment with SW480 cells, the “effect on β-catenin” value is “promotes the degradation of β-catenin”.
For “DLX5: Distal-Less Homeobox 5 transcription factor (SEQ ID NO: 2), overexpressed in PSCs from a doxycycline-inducible polynucleotide”, the “germ cell formation rescue compared to wildtype” value in experiment [1] (absence of BMP4) worked out at 50%. Also, the “effect on NANOS3+ hPGCLC yield” value in experiment [1] is given as “enhanced”. For the same molecule, the “activity (hPGCLC yield) retained without hBMP4” value in experiment [1] (without hBMP4, compared to normal condition, FIG. 3A) turned out to be 40%.
In the case of “FIGLA: Folliculogenesis Specific BHLH Transcription Factor (SEQ ID NO: 1), overexpressed in PSCs from a doxycycline-inducible polynucleotide”, in experiment [1], the “effect on NANOS3+ hPGCLC yield” value is reported as “enhanced”.
With `CCN(CC)CCCCNc1ncc2cc(-c3cc(OC)cc(OC)c3)c(NC(=O)NC(C)(C)C)nc2n1` [PD 173074], the IC50 at c-Src was about 19.8 µM; with PDGFR it was about 17.6 µM; with PKC, over 50 µM; on VEGFR2 it was about 0.1 µM; in the experiment with MEK, over 50 µM.

B1: HHEX: Hematopoietically Expressed Homeobox transcription factor (SEQ ID NO: 3), overexpressed in PSCs from a doxycycline-inducible polynucleotide (protein)
chain: MQYPHPGPAAGAVGVPLYAPTPLLQPAHPTPFYIEDILGRGPAAPTPAPTLPSPNSSFTSLVSPYRTPVYEPTPIHPAFSHHSAAALAAAYGPGGFGGPLYPFPRTVNDYTHALLRHDPLGKPLLWSPFLQRPLHKRKGGQVRFSNDQTIELEKKFETQKYLSPPERKRLAKMLQLSERQVKTWFQNRRAKWRRLKQENPQSNKKEELESLDSSCDQRQDLPSEQNKGASLDSSQCSPSPASQEDLESEISEDSDQEVDIEGDKSYFNAG
As to B1, the “effect on NANOS3+ hPGCLC yield” value in experiment [1] was “enhanced”.
